Experimental findings from ChEMBL document CHEMBL3046384, “Pharmacophore modeling and structure-based virtual screening for a novel switch region target of bacterial RNA polymerase” (Med Chem Res, 2012) are described below.

The nature of this assay: Inhibition of RNA polymerase of Bacteria.
For `CCC/C(C)=C/C=C(\C)C(=O)c1c(O)cc([C@H](C)CC/C=C/NC(=O)OC)oc1=O` [MYXOPORIN A], the IC50 (commonly the point on the concentration scale where inhibition reaches its midpoint) is 1000 nM.
With `C/C=C/C/C=C(\C)C(O)CC/C(C)=C/C=C(\C)C(=O)c1c(O)cc([C@H](C)CC/C=C/NC(=O)OC)oc1=O` (stereo partly drawn) [CORALLOPYRONIN A] the figure was 4000 nM; with `C/C(=C\Cc1ccccc1)CCC(=O)C[C@H]1C[C@H](O)C/C(C)=C/C/C=C/C/C(CC(=O)O)=C\C(=O)O1` [RIPOSTATIN], 800 nM.
